Data: patent publication US20190192458A1, “THERAPEUTIC/PROPHYLACTIC AGENT FOR GRAFT-VERSUS-HOST DISEASE, FIBROCYTE INVASION INHIBITOR, AND INHIBITOR AGAINST TEAR REDUCTION AND REDUCTION IN GOBLET CELLS” (KEIO UNIVERSITY, priority 2016, published 2019)

Legend:
[1] = system: endoplasmic reticulum stress markers and related inflammation markers in cGVHD target organs; assay: Immunoblot analysis of endoplasmic reticulum stress markers and related inflammation markers in cGVHD target organs; assay type: in vivo, mouse; conditions: n=4
Protocol: (§1) Bone marrow transplantation was performed as described in the above section “Bone marrow transplantation,” and the resulting allogeneic bone marrow transplantation recipient mice were divided into two groups. One group was treated with intraperitoneal injection of PBA (10 mg/kg) (Aldrich) while the other was treated with intraperitoneal injection of a solvent vehicle⋅phosphate buffered saline (PBS) (pH 7.4). The allogeneic bone marrow transplantation recipients received once-daily administration of PBA or the solvent vehicle from Day 10 to Day 27 after bone marrow transplantation. They were sacrificed on Day 28 after bone marrow transplantation.
cGVHD-affected organs (exorbital lacrimal gland, proximal portion of the small intestine, dorsal skin, liver, salivary gland, lung, large intestine, and eyes) were analyzed herein.
(§2) Tissues of interest were each placed into an Eppendorf tube, and a pre-cooled RIPA buffer solution was then added to the tube. Subsequently, the tissues were each homogenized with an electric homogenizer. Samples were each allowed to stand on ice for 1 hour, and then centrifuged at 15000 rpm for 5 minutes at 4° C. Then, the supernatants were each collected in a fresh tube on ice, and used as a cell lysate. The cell lysates each received the same amount of a 5×Laemmli buffer solution, and each was heated at 100° C. for 5 minutes to denature proteins.
(§3) An aliquot of each sample having the same amount of proteins was loaded into a well of an SDS-PAGE gel, and then […]. Proteins were transferred from the gel to a membrane at 15 V for 20 minutes. The membrane was blocked at room temperature for 1 hour with 5% skim milk or 5% BSA (bovine serum albumin) in 1×TBST (a mixture of Tris-buffered saline and Tween 20). Subsequently, the membrane was incubated with a primary antibody at 4° C. overnight. The above primary antibody was diluted 1000 times with 5% skim milk or 5% BSA in 1×TBST. After incubation with the primary antibody, the membrane was washed with 1×TBST (3×10 minutes), and subjected to a secondary antibody at room temperature for 1 hour, and then washed with 1×TBST (3×10 minutes) and 1×TBS (2×10 minutes).
Proteins of interest were visualized by either one of the following two methods. (1) A target protein was colorimetrically detected using a BCIP/NBT substrate (Promega). (2) A signal was developed with an enhanced chemiluminescence (ECL) detection reagent (GE Healthcare), and a target protein was then visualized with an LAS4000 mini chemiluminescence imaging system (FUJIFILM Corporation/GE Healthcare).
The intensity of the resulting protein band was analyzed using image processing software ImageJ. Primary antibodies used in the experiments were GRP78 (Abcam), phospho-PERK (Thr980; Cell Signaling Technology Inc.), PERK (C33E10; Cell Signaling Technology Inc.), phosphor-IRE1α (Thermo Fisher Sceientific), IRE1α (14C10; Cell Signaling Technology Inc.), phosphor-eIF2α (119A11; Cell Signaling Technology Inc.), eIF2α (Cell Signaling Technology Inc.), CHOP (9C8; Thermo Fisher Scientific), TXNIP (D5F3E, Cell Signaling Technology Inc.), NF-κB (Abcam), HSP47 (SPA-470; Stress-Gen Biotechnologies Corp.), CTGF (Abcam), and β-actin (AC-15; Abcam).
With regard to the secondary antibody, (1) either AP-conjugated anti-mouse IgG antibody (Promega) or AP-conjugated anti-rabbit IgG antibody (Promega) was used when protein bands were chromogenically visualized; (2) HRP-conjugated anti-mouse antibody (Thermo Fisher Scientific) or HRP-conjugated anti-rabbit antibody (Thermo Fisher Scientific) was used when target proteins were detected by ECL.

[2] = system: mouse lacrimal gland fibroblasts; assay: Cultured lacrimal gland fibroblasts from PBA-treated and vehicle-treated mice (immunoblot, ELISA, qPCR); assay type: cell-based
Protocol: as §1
Fibroblasts from a mouse lacrimal gland were cultured by an established method reported by Yaguchi et al. (Yaguchi S, Ogawa Y, Shimmura S, et al., Presence and Physiologic Function of the Renin—Angiotensin System in Mouse Lacrimal Gland. Investigative Ophthalmology & Visual Science, 2012; 53: 5416-5425). A mouse lacrimal gland was collected and cut into small pieces. The tissue pieces were incubated at 37° C. in DMEM (Life Technologies Japan Ltd.) containing 5% of fetal bovine serum (FBS) Sigma), and 5% of an antibiotic. The antibiotic included a 1:1 mixture of streptomycin sulfate (Meiji Seika Pharma Co., Ltd.) and benzylpenicillin potassium (Meiji Seika Kaisha, Ltd.). The small pieces were used to grow fibroblasts starting from 3 to 4 days later. Fibroblasts were cultured in DMEM containing 5% of FBS and 5% of the antibiotic, and were used in experiments after 3 to 5 passages. Trypsin (Becton Dickinson) was used to detach fibroblasts from the culture dish.
The total RNA was extracted from the exorbital lacrimal gland, the proximal portion of the small intestine, the dorsal skin, the liver, the cultured fibroblasts, and the cultured macrophages using a miRNeasy mini kit (Qiagen), and the corresponding complementary DNAs were synthesized using a Rever Tra Ace qPCR RT kit (Toyobo Co., Ltd.). Primers used for analyzing the mRNA expression of the following genes with the TaqMan real-time polymerase chain reaction (PCR) were purchased from Applied Biosystems: housekeeping gene […] (GAPDH), glucose-regulated protein 78 (GRP78), Interleukin-1β (IL-1β), IL-6, IL-10, macrophage chemoattractant protein-1 (MCP-1), and transcription growth factor-β (TGF). A Step One Plus system (Applied Biosystems) was used to perform quantitative real time PCR, and the resulting data was analyzed by the 2^−ΔΔCT method. GAPDH was used as an internal standard for measuring the expression of mRNA.
as §2, §3
Proteins of interest were visualized by either one of the following two methods. […]

[3] = PBA-treated vs vehicle-treated organs
[4] = organs of PBA-treated (10 mg/kg i.p.) vs vehicle-treated cGVHD mice
[5] = PBA-treated vs vehicle-treated fibroblasts, immunoblot, n=4
[6] = cultured fibroblasts from PBA-treated vs vehicle-treated mice, immunoblot

## O=C(O)CCCc1ccccc1 [PBA, 4-phenyl-n-butyric acid]
[1]; [3]
  proinflammatory molecule NF-κB in organs: inhibited
  proinflammatory molecule TXNIP in organs: inhibited
[1]; [4]
  protein level of CHOP in organs: lower protein levels
  protein level of GRP78 in organs: lower protein levels
  protein level of p-IRE1α in organs: lower protein levels
  protein level of p-PERK in organs: lower protein levels
  protein level of p-eIF2α in organs: lower protein levels
[2]; PBA-treated vs vehicle-treated fibroblasts, ELISA, n=4
  production of MCP-1 by lacrimal gland fibroblasts: decreased
[2]; [5]
  protein level of CTGF in lacrimal gland fibroblasts: decreased
  protein level of HSP47 in lacrimal gland fibroblasts: decreased
[2]; PBA-treated vs vehicle-treated fibroblasts, qPCR, n=4
  mRNA levels of IL-6 in lacrimal gland fibroblasts: decreased
[2]; [6]
  CHOP in lacrimal gland fibroblasts: markedly inhibited
  GRP78 in lacrimal gland fibroblasts: markedly inhibited
  phosphorylated IRE1α in lacrimal gland fibroblasts: markedly inhibited
  phosphorylated PERK in lacrimal gland fibroblasts: markedly inhibited
  phosphorylated eIF2α in lacrimal gland fibroblasts: markedly inhibited
